Data from the supplement of paper PMC8967900.

What was measured:
Test in all cases: selective drug sensitivity score (sDSS, relative to normal bone marrow) (sDSS (score)); higher = more potent and effective on the cell line relative to normal bone marrow cells
Conditions in all cases: 72 h
LC4-1 = test system: LC4-1
RPMI-8402 = test system: RPMI-8402
NALM-6 = test system: NALM-6
MN-60 = test system: MN-60
MHH-CALL-3 = test system: MHH-CALL-3
KASUMI-2 = test system: KASUMI-2
P12-ICHIKAWA = test system: P12-ICHIKAWA
REH = test system: REH
HAL-01 = test system: HAL-01
ALL-PO = test system: ALL-PO
PF-382 = test system: PF-382
MHH-CALL-2 = test system: MHH-CALL-2
MOLT-4 = test system: MOLT-4
DND-41 = test system: DND-41
KASUMI-10 = test system: KASUMI-10
COG-LL-319h = test system: COG-LL-319h
SEM cells = test system: SEM cells
COG-LL-394h = test system: COG-LL-394h
CCRF-CEM = test system: CCRF-CEM
MOLT-14 = test system: MOLT-14
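Also: ALL cell lines in 384-well plates, five doses spanning 10,000-fold, each plate scaled between vehicle and 100 µmol/L benzalkonium chloride controls, sDSS an adapted area-under-curve metric.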

SMILES	selective drug sensitivity score (LC4-1)	selective drug sensitivity score (RPMI-8402)	selective drug sensitivity score (NALM-6)	selective drug sensitivity score (MN-60)	selective drug sensitivity score (MHH-CALL-3)	selective drug sensitivity score (KASUMI-2)	selective drug sensitivity score (P12-ICHIKAWA)	selective drug sensitivity score (REH)	selective drug sensitivity score (HAL-01)	selective drug sensitivity score (ALL-PO)	selective drug sensitivity score (PF-382)	selective drug sensitivity score (MHH-CALL-2)	selective drug sensitivity score (MOLT-4)	selective drug sensitivity score (DND-41)	selective drug sensitivity score (KASUMI-10)	selective drug sensitivity score (COG-LL-319h)	selective drug sensitivity score (SEM cells)	selective drug sensitivity score (COG-LL-394h)	selective drug sensitivity score (CCRF-CEM)	selective drug sensitivity score (MOLT-14)
CNC(=O)c1ccc(N2C(=S)N(c3ccc(C#N)c(C(F)(F)F)c3)C(=O)C2(C)C)cc1F [Enzalutamide] (top concentration 10000 nM)	0.28	0.48	0.68	-0.22	-0.82	-0.82	-0.42	-0.82	-0.82	0.88	0.18	-0.12	-0.82	1.58	-0.82	1.58	-0.82	-0.32	-0.52	-0.02
Cn1cc(C2=C(c3cn(C4CCN(Cc5ccccn5)CC4)c4ccccc34)C(=O)NC2=O)c2ccccc21 [Enzastaurin] (top concentration 10000 nM)	3.26	5.86	5.26	5.16	3.86	2.06	4.66	3.66	-0.34	5.96	3.36	0.66	6.26	4.56	4.56	2.26	6.76	6.86	5.06	6.06
NS(=O)(=O)NCCNc1nonc1/C(=N/O)Nc1ccc(F)c(Br)c1 [Epacadostat] (top concentration 10000 nM)	-0.26	0.54	-0.26	1.44	-0.26	-0.26	-0.26	3.34	0.84	-0.26	-0.26	1.64	-0.16	-0.26	-0.06	-0.26	8.34	-0.26	-0.26	-0.26
CCOc1ccccc1-n1c(C(C)N2CCN(C(=O)COc3ccc(Cl)cc3)CC2)nc2ccccc2c1=O (stereo not given) [Erastin] (top concentration 10000 nM)	16	-5.96	7.44	-6.86	24.4	19.4	7.94	7.04	18.5	4.54	21	6.34	-2.26	7.14	-4.36	19.3	6.34	-0.76	9.34	8.54
COc1cc(OC)cc(N(CCNC(C)C)c2ccc3ncc(-c4cnn(C)c4)nc3c2)c1 [Erdafitinib] (top concentration 1000 nM)	-0.56	-0.56	-0.56	-0.56	0.64	-0.56	-0.56	0.44	6.94	-0.46	-0.56	8.24	-0.56	-0.26	-0.06	0.44	0.24	-0.56	-0.56	-0.56
CC(C)(C)NC(=O)[C@H]1CC[C@H]2[C@@H]3CC[C@H]4NC(=O)C=C[C@]4(C)[C@H]3CC[C@]12C [Finasteride] (top concentration 10000 nM)	2.08	-0.52	-0.52	-0.52	-0.52	0.78	-0.52	-0.52	1.08	0.48	-0.52	0.98	-0.52	2.98	-0.42	-0.42	1.48	-0.52	-0.52	-0.52
O=c1[nH]c(=O)n([C@H]2C[C@H](O)[C@@H](CO)O2)cc1F [Floxuridine] (top concentration 10000 nM)	36.2	26	24.2	10.3	26.3	33.4	30.4	25.8	23.7	36.5	9.82	24.2	26.6	21	29.7	26.8	31.5	3.62	31.1	27.1
CNc1nc(Nc2cn(C(C)(C)C#N)nc2C)ncc1C(F)(F)F [GNE-0877] (top concentration 1000 nM)	0	0	0	0	0	1	0	0.8	0	0	0	0	0	0	0	0	0	0	0	0
CCCc1cc(C)[nH]c(=O)c1CNC(=O)c1cc(-c2ccnc(N3CCN(C)CC3)c2)cc2c1cnn2C(C)C [GSK343] (top concentration 1000 nM)	0	0	0	0	0	0	0	0	0	0.1	0	0	0	0	0	0	0	0.1	0	2
